Tests used:
[1] = set-up: method as in Brown et al. 11; settings: ref Brown et al. 11; cited from earlier work
[2] = human, ref Schulz et al.[56], cited from earlier work; for Therapeutic "normal" blood-plasma/serum concentration: converted from µg/mL
[3] = for Cootes carp plasma, range of concentrations / wild goldfish plasma, range of concentrations: Cootes Paradise Marsh; for plasma concentration, CPM-C 01: Cootes carp 01, 2011, male; for plasma concentration, CPM-C 2: Cootes carp 2, Sep 27, 2011, male; for plasma concentration, CPM-C 10: Cootes carp 10, Sep 28, 2011, female; for plasma concentration, CPM-C 13: Cootes carp 13, Sep 28, 2011, female; for plasma concentration, CPM-C 20: Cootes carp 20, 2011, male; for plasma concentration, CPM-C 36: Cootes carp 36, Oct 3, 2011, female; for plasma concentration, carp, this study (mean) / plasma concentration, goldfish, this study (mean): Table S8; for plasma concentration, CPM wild-01: wild goldfish sample 01, 2012, wet weight; for plasma concentration, CPM wild-02: wild goldfish sample 02, 2012, wet weight; for plasma concentration, CPM wild-03: wild goldfish sample 03, 2012, wet weight
[4] = cited from earlier work
[5] = Plasma bioaccumulation factor (BAFP), goldfish; assay type: in vivo, goldfish (Carassius auratus)
In short: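 BAFP in goldfish was calculated as plasma concentration (ng/g × 1000) divided by water concentration (ng/L).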

[6] = Jordan Harbour brown bullhead, wet weight
Procedure: Plasma from 9 individual male fish (500 µL/individual) was pooled to yield 3 samples for PPCP analysis. […] Plasma from 6 individual carp (2.3–3.5 g) from each location was selected for PPCP analysis. […] Plasma samples were frozen (−80 °C) until analysis.
A total of 20 fish plasma samples from the pooled caged fish (7) and the wild fish (13) along with 12 water samples were selected for analysis. […] A full list of analytes is provided in Supplementary Information. Mass labelled^13C-, or deuterated surrogate internal standards were used for quantification of all analytes via the isotope dilution/surrogate standard quantitation method. Prior to extraction and/or clean-up procedures, aqueous samples were adjusted to pH 2.0, spiked with extraction surrogate standards, then adjusted to pH 4 using tetrasodium ethylenediamine-tetraacetate dihydrate. Plasma samples (2.3–2.5 g) were spiked with extraction surrogate standards, sonicated with 20 mL acetonitrile, then diluted with ultra-pure water to 200 mL. The extracts were cleaned up by solid phase extraction using Oasis HLB cartridges (Waters Ltd. Mississauga ON), filtered, and analyzed by liquid chromatography-electrospray ionization-tandem mass spectrometry (LC/ESI-MS/MS) in positive or negative ionization mode. The analysis of the complete list of analytes (SI Table S1) required a total of five instrumental runs.

[7] = ref Meador et al. 18; cited from earlier work
[8] = set-up: method as in US EPA Chemistry Dashboard; settings: ref US EPA Chemistry Dashboard; cited from earlier work
in vivo = settings: for concentration at 21 days: goldfish (Carassius auratus)
In short: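 Pooled caged-goldfish plasma, wild-fish plasma (2.3–2.5 g) and water samples were spiked with isotope-labelled surrogates, then extracted (acetonitrile sonication for plasma; pH-adjusted water) and cleaned up by HLB SPE. PPCPs were quantified by LC/ESI-MS/MS using isotope dilution. Non-detects were set to ½ DL when the analyte was detected in ≥2 samples.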

[9] = Plasma bioaccumulation factor (BAFP), carp; assay type: in vivo, carp (Cyprinus carpio)
Procedure: Bioaccumulation factor (BAFP) was calculated as concentration in fish plasma (ng/g × 1000) divided by concentration in water (ng/L). Two widely used modeling approaches for predicting organic contaminant bioaccumulation were assessed: the BCF-BAF model for whole body BAFs[53] and the fish-plasma concentration calculation of Huggett et al.[35] modified by Berninger et al.[54]. The latter involves estimating an octanol-water partition coefficient (Kow) adjusted for fraction ionized (log D), using the pKa value to adjust log Kow[54] taking into account the pH of CPM waters. Further information on the calculation of log D, blood-water partitioning (PBW), and plasma concentrations (FPC) is given in the SI.

[10] = set-up: method as in Moreno-González et al. 17; settings: mean ± SD; ref Moreno-González et al. 17; cited from earlier work
[11] = in vivo, plasma concentration, JH caged, Jordan Harbour reference site, 07-2014, pooled plasma, wet weight
[12] = conc in fish plasma/conc in water
[13] = range based on range of plasma concentrations

| Compound | Therapeutic "normal" blood-plasma/serum concentration [2] | Cootes carp plasma, range of concentrations [3] | wild goldfish plasma, range of concentrations [3] | plasma concentration, CPM-C 01 ([3]; wet weight) | plasma concentration, CPM-C 2 ([3]; wet weight) | plasma concentration, CPM-C 10 ([3]; wet weight) | plasma concentration, CPM-C 13 ([3]; wet weight) | plasma concentration, CPM-C 20 ([3]; wet weight) | plasma concentration, CPM-C 36 ([3]; wet weight) | plasma concentration, carp, this study (mean) [3] | plasma concentration, goldfish, this study (mean) [3] | plasma concentration, CPM wild-01 [3] | plasma concentration, CPM wild-02 [3] | plasma concentration, CPM wild-03 [3] | log Kow [8] | concentration at 21 days (in vivo; [11]) | further results |
| --- | --- | --- | --- | --- | --- | --- | --- | --- | --- | --- | --- | --- | --- | --- | --- | --- | --- |
| Cc1ccc(C)c(OCCCC(C)(C)C(=O)O)c1 [Gemfibrozil] | ~25000 ng/mL | 0.16 to 0.83 ng/g | 0.15–0.15 ng/g | 0.158 ng/g | 0.724 ng/g | 0.227 ng/g | 0.234 ng/g | 0.162 ng/g | 0.827 ng/g | 0.39 ng/g wet weight or ng/mL for plasma | 0.46 ng/g wet weight or ng/mL for plasma | 0.147 ng/g | 0.387 ng/g | 0.86 ng/g | 4.14 | < 0.3 ng/g | plasma concentration, rainbow trout [1]: <8-210 ng/g wet weight or ng/mL for plasma; Carp plasma concentration, this study (range) ([3]; Table S7): 0.16 to 0.83 ng/g; Goldfish plasma concentration, this study (range) ([3]; Table S7): 0.15 to 0.86 ng/g; Salmon (whole body) concentration ([4]; Table S7, ref Meador et al. (2016)): 1.3 ng/g; whole fish concentration, salmon ([4]; ref Meador et al. 18): 1.3 ng/g wet weight or ng/mL for plasma; BAFP, CPM2 goldfish caged ([5]; CPM2, water sample of August 2012): 27 L/kg; plasma concentration, JH-BB [6]: < 0.57 ng/g; whole fish concentration, sculpin [7]: < mdl; plasma concentration, CPM1 caged (in vivo; CPM1, 07-2014, pooled plasma, wet weight): 0.15 ng/g; plasma concentration, CPM3 caged (in vivo; CPM3, 07-2014, pooled plasma, wet weight): 0.15 ng/g; concentration at 21 days (in vivo; plasma, caged goldfish plasma, range of concentrations, Cootes Paradise Marsh, range): 0.15 to 0.86 ng/g; concentration at 21 days (in vivo; plasma, plasma concentration, CPM1 caged, CPM1, 07-2014, pooled plasma, wet weight): 0.147 ng/g; concentration at 21 days (in vivo; plasma, plasma concentration, CPM2 caged, CPM2, 07-2014, pooled plasma, wet weight): 0.146 ng/g; concentration at 21 days (in vivo; plasma, plasma concentration, CPM3 caged, CPM3, 07-2014, pooled plasma, wet weight): 0.154 ng/g |
| COc1ccc(C(CN(C)C)C2(O)CCCCC2)cc1 (stereo not shown) [Venlafaxine] | 100 to 400 ng/mL | 0.04 to 0.27 ng/g | 0.04 to 0.17 ng/g | 0.042 ng/g | 0.086 ng/g | 0.061 ng/g | 0.063 ng/g | 0.268 ng/g | 0.057 ng/g | 0.10 ng/g wet weight or ng/mL for plasma | 0.11 ng/g wet weight or ng/mL for plasma | 0.039 ng/g | 0.258 ng/g | 0.042 ng/g | 3.28 | < 0.08 ng/g | BAFP at JH, carp, average ([9]; Jordan Harbour): 64 L/kg; BAFP at CPM3, carp, average [9, 12]: 12 L/kg; BAFP at CPM3, carp, range [9, 13]: 5 to 32 L/kg; toxic dose (toxic blood-plasma/serum concentration) [2]: 1000 to 1500 ng/mL; plasma concentration, JH-C 54 ([3]; Jordan Harbour carp 54, Nov 7, 2011, male, wet weight): 0.042 ng/g; plasma concentration, JH-C 73 ([3]; Jordan Harbour carp 73, Nov 7, 2011, female, wet weight): 0.041 ng/g; plasma concentration, JH-C 74 ([3]; Jordan Harbour carp 74, Nov 7, 2011, male, wet weight): 0.043 ng/g; plasma concentration, JH-C 75 ([3]; Jordan Harbour carp 75, Nov 7, 2011, female, wet weight): 0.060 ng/g; plasma concentration, JH-C 82 ([3]; Jordan Harbour carp 82, Nov 7, 2011, female, wet weight): 0.040 ng/g; liver & muscle concentration, mullet [10]: 0.68 ± 1.3 ng/g wet weight or ng/mL for plasma; BAFP, CPM1 goldfish caged ([5]; CPM1): 3 L/kg; BAFP, CPM3 goldfish caged ([5]; CPM3): 52 L/kg; BAFP at CPM3, wild goldfish, average [5, 12]: 14 L/kg; BAFP at CPM3, wild goldfish, range [5, 13]: 5 to 31 L/kg; concentration at 21 days (in vivo; in vivo, caged goldfish plasma, range of concentrations, Cootes Paradise Marsh, range): 0.04 to 0.26 ng/g; concentration at 21 days (in vivo; in vivo, plasma concentration, CPM1 caged, CPM1, 07-2014, pooled plasma, wet weight): 0.165 ng/g; concentration at 21 days (in vivo; in vivo, plasma concentration, CPM2 caged, CPM2, 07-2014, pooled plasma, wet weight): 0.039 ng/g; concentration at 21 days (in vivo; in vivo, plasma concentration, CPM3 caged, CPM3, 07-2014, pooled plasma, wet weight): 0.041 ng/g |
